The values that follow come from patent US7074459B2, “Method for preserving wood” (priority 2003, dated 2006).

Common to all, as to format: cell-based
Test [1] has as its system Staphylococcus aureous (gram positive). The test can be described thus: Bacteriostatic activity in Oxoid No. 2 nutrient broth. The conditions noted are these: 0.1 wt. %, 48 hours incubation. As to the method:
(§1) The bacteriostatic activity of several complexes was investigated by testing at 0.1 wt. % using Oxoid No. 2 nutrient broth and inoculating the broth with 1 ml of a 24 hour broth culture of the test organisms. After incubation at the optimum growth temperature of the organism for 48 hours.
(§2) The organisms tested were:
Staphylococcus aureous (gram positive)

Test [2] relates to Pseudomonas aeruginosa (gram negative). The description is as above. The conditions noted are these: 0.1 wt. %, 48 hours incubation. As to the method:
as §1, §2
Pseudomonas aeruginosa (gram negative)

Test [3] deals with Escherichia coli (gram negative). The test is described as above. The conditions noted are these: 0.1 wt. %, 48 hours incubation. On the procedure:
as §1, §2
Escherichia coli (gram negative)

For test [4], the system named is brown-rot fungus Gloeophyllum trabeum. Kind of test: ASTM 1413 standard soil block test, 12 weeks. The conditions noted are these: 1% treatment, unleached, 12-week soil block test with G. trabeum. On the procedure:
The following five wood preservatives were prepared for testing according to ASTM Stanard D 1413. • 1. chlorhexidine (CH)—Omadine^a 1:2 complex • 2. Polyhexamethylene biguanide—Omadine 1:1 complex • 3. Bardac^b 2250—Omadine 1:1 complex • 4. Tetrakis(hydroxylmethyl)phosphonium 0 Omadine 1:1 complex • 5. B-55^c polyionene—Omadine 1:2 complex • a) Omadine is 2-mercapto pyridine N-oxide • b) Barclac 2250 is […] • c) […] is poly(oxyethylene(dimethyliminio)ethylene(dimethylimino)ethylene dichloride Biological Evaluation
The ASTM 1413 standard soil block test was performed (ASTM 1999) Five soil bottles of each treatment and solution concentration (plus untreated controls) were exposed to the brown-rot fungus Gloeophyllum trabeum for 12 weeks. Two soil bottles with no fungus were also run to monitor any leaching of chemicals. Specimens were removed from test after 12 weeks exposure and conditioned until constant weight in the conditioning room (27° C./30°RH). The extent of decay was determined by weight loss.

Take `N=C(NCCCCCCNC(=N)NC(=N)Nc1ccc(Cl)cc1)NC(=N)Nc1ccc(Cl)cc1.On1ccccc1=S.On1ccccc1=S` [Compound 6, chlorhexidinium di(2-mercapto-pyridine N-oxides)]: the bacteriostatic activity entry in test [1], in test [2] and in test [3] was “bacteriostatic” in each case. Further, the “Wt. Loss % (Fungus)” value in test [4] worked out at 1.57%.

As to `OC[P+](CO)(CO)CO.[O-][n+]1ccccc1[S-]` [Compound 8], the bacteriostatic activity entry in test [1], in test [2] and in test [3] was “bacteriostatic” each time. Moreover, the “Wt. Loss % (Fungus)” value in test [4] is listed as −0.07%.

With `N=C(NCCCCCCNC(=N)NC(=N)Nc1ccc(Cl)cc1)NC(=N)Nc1ccc(Cl)cc1.Oc1cc(Cl)ccc1Oc1ccc(Cl)cc1Cl.Oc1cc(Cl)ccc1Oc1ccc(Cl)cc1Cl` [Compound 10, chlorhexidinium di (triclosante)], the bacteriostatic activity entry in test [1], in test [2] and in test [3] was “bacteriostatic” throughout.

For “didecyldimethyl ammonium 2-mercapto-benzothiazole [Compound 5]”, the bacteriostatic activity entry in test [1], in test [2] and in test [3] was “bacteriostatic” in each case.
